Where two headings read alike, the source gives them in different places.
What was measured:
MAGL [1] = target: MAGL (Homo sapiens (Human), UniProt Q99685); assay: In vitro competitive activity-based protein profiling (human prefrontal cortex or cell membrane fractions; hMAGL expressed in HEK293T cells); assay type: biochemical
In short: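 Human prefrontal cortex or cell membrane proteomes (1.0-2.0 mg/mL), or lysates of HEK293T cells expressing hMAGL diluted into mock proteome, preincubated with inhibitor 30 min at 37° C. FP-Rh or JW912 probe then added for 30 min at room temperature. Residual labeling resolved by SDS-PAGE.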

FAAH [2] = target: T1, FAAH (Mus musculus (Mouse), UniProt O08914); assay: Mouse brain proteomes from inhibitor treated mice (oral gavage, sacrificed 4 h after administration, ABPP analysis), FAAH; assay type: in vivo, mouse (C57Bl/6J); conditions: 5 mg/kg oral gavage
In short: (§1)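 Read-out is % inhibition at 5 mg/kg in brain proteomes profiled by activity-based protein profiling. Inhibitors were dosed orally to wild-type C57Bl/6J mice, with sacrifice at 4 h.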

ABHD6 [3] = target: T2, ABHD6 (Mus musculus (Mouse), UniProt Q8R2Y0); assay: In vitro competitive activity-based protein profiling (mouse brain membrane fraction or cell lysates), ABHD6 band; assay type: biochemical; conditions: for inhibition at 1 µM: read-out: ABHD6 % Inh 1 μM (mouse); for IC50: competitive ABPP
In short: (§2)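 Residual hydrolase activity was measured as gel band fluorescence after FP-Rh labelling (30 min, 37° C) of proteomes pretreated 30 min at 37° C with inhibitor.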

MAGL [4] = target: T3, MAGL (Mus musculus (Mouse), UniProt O35678); assay: Mouse brain proteomes from inhibitor treated mice (oral gavage, sacrificed 4 h after administration, ABPP analysis); assay type: in vivo, mouse (C57Bl/6J); conditions: 5 mg/kg oral gavage
In short: as §1

FAAH [5] = target: T1, FAAH; assay: In vitro competitive activity-based protein profiling (mouse brain membrane fraction or cell lysates), FAAH band; assay type: biochemical; conditions: for inhibition at 1 µM: read-out: FAAH % Inh 1 μM (mouse); for IC50: competitive ABPP
In short: as §2

MAGL [6] = target: T3, MAGL; assay: In vitro competitive activity-based protein profiling (mouse brain membrane fraction or cell lysates), MAGL band; assay type: biochemical; conditions: for inhibition at 1 µM: read-out: MAGL % Inh 1 μM (mouse); for IC50: competitive ABPP
Description: In Vitro Competitive Activity-Based Protein Profiling.
Proteomes (mouse brain membrane fraction or cell lysates) (50 μL, 1.0 mg/mL total protein concentration) were preincubated with varying concentrations of inhibitors at 37° C. After 30 min, FP—Rh (1.0 μL, 50 μM in DMSO) was added and the mixture was incubated for another 30 min at 37° C. Reactions were quenched with SDS loading buffer (50 μL-4×) and run on SDS-PAGE.

ABHD6 [7] = target: T2, ABHD6; assay: Mouse brain proteomes from inhibitor treated mice (oral gavage, sacrificed 4 h after administration, ABPP analysis), ABHD6; assay type: in vivo, mouse (C57Bl/6J); conditions: 5 mg/kg oral gavage
In short: as §1

[8] = human proteome, competitive ABPP

T2 sequence (Q8R2Y0 whole entry): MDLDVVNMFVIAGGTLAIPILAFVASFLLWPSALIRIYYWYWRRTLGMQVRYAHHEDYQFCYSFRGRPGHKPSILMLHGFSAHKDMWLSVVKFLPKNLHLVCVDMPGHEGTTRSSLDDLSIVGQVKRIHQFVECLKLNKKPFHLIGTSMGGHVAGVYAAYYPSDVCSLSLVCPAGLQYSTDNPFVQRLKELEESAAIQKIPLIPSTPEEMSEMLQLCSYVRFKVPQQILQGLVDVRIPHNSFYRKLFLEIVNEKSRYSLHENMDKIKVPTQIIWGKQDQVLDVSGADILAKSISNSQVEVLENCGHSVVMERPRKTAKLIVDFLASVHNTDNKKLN
MAGL (Homo sapiens (Human), UniProt Q99685), sequence (Q99685 whole entry): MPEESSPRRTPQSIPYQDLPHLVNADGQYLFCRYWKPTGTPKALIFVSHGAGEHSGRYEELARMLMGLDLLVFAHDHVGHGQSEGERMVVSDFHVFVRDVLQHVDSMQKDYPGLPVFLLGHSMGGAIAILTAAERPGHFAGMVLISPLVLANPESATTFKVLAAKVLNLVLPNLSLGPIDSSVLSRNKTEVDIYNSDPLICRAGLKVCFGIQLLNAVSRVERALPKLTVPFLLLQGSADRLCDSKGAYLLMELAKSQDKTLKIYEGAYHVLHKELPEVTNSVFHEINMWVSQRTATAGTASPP
T3 sequence (O35678 whole entry): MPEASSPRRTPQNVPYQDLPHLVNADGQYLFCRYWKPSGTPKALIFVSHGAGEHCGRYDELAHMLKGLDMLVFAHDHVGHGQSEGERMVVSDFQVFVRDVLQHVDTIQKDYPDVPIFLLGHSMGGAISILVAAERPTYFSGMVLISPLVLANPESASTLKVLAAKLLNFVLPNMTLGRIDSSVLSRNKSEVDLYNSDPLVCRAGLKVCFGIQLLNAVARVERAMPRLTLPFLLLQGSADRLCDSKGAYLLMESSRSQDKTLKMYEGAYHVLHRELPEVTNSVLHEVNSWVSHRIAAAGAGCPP
T1 sequence (O08914 whole entry): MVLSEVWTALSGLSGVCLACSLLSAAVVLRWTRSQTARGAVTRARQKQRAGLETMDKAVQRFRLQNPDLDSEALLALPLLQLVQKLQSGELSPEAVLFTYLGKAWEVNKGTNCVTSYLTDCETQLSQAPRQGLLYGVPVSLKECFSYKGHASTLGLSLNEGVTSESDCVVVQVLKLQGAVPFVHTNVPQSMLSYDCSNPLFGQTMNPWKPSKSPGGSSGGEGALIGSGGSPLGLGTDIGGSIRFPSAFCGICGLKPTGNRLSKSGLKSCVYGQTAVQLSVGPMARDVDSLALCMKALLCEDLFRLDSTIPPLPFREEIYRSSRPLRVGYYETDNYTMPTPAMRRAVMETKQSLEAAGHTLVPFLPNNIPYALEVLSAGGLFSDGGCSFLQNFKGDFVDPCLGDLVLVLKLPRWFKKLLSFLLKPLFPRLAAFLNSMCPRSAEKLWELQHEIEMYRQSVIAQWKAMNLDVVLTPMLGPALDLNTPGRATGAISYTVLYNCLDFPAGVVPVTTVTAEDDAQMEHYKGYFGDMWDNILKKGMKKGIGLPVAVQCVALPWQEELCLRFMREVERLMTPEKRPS

IC50 (MAGL [1]; [8]) | FAAH % Inh 5 mg/kg (mouse) (FAAH [2]) | inhibition at 1 µM (ABHD6 [3]; mouse proteome) | IC50 (ABHD6 [3]; mouse proteome) | MAGL % Inh 5 mg/kg (mouse) (MAGL [4]) | inhibition at 1 µM (FAAH [5]; mouse proteome) | IC50 (FAAH [5]; mouse proteome) | inhibition at 1 µM (MAGL [6]; mouse proteome) | IC50 (MAGL [6]; mouse proteome) | ABHD6 % Inh 5 mg/kg (mouse) (ABHD6 [7]) | IC50 (MAGL [1]; human) | inhibition at 1 µM (ABHD6 [3]; mouse) | inhibition at 1 µM (FAAH [5]; mouse) | inhibition at 1 µM (MAGL [6]; mouse) | Structure (SMILES)
< 0.1 µM | # (# is <25%) | < 25% | > 1 µM | ### (### is ≥75%) | < 25% | > 1 µM | > 75% | < 0.1 µM | # (# is <25%) | – | – | – | – | O=C(O)C1CCN(c2cc(Cl)ccc2CN2CCCC23CCN(C(=O)OC(C(F)(F)F)C(F)(F)F)CC3)CC1 [Example 120, 1-(5-Chloro-2-((8-(((1,1,1,3,3,3-hexafluoropropan-2-yl)oxy)carbonyl)-1,8-diazaspiro[4.5]decan-1-yl)methyl)phenyl)piperidine-4-carboxylic acid]
< 0.1 µM | # (# is <25%) | < 25% | – | ### (### is ≥75%) | < 25% | – | > 75% | – | # (# is <25%) | – | – | – | – | O=C(O)[C@H]1CCCN(c2cc(C(F)(F)F)ccc2CN2CCCC23CCN(C(=O)OC(C(F)(F)F)C(F)(F)F)CC3)C1 [Example 217]
< 0.1 µM | # (# is <25%) | < 25% | > 1 µM | ### (### is ≥75%) | < 25% | > 1 µM | > 75% | < 0.1 µM | # (# is <25%) | – | – | – | – | O=C(OC(C(F)(F)F)C(F)(F)F)N1CCC2(CCCN2Cc2ccc(C(F)(F)F)c(N3CCCC3)c2)CC1 [Example 134, 1,1,1,3,3,3-Hexafluoropropan-2-yl 1-(3-(pyrrolidin-1-yl)-4-(trifluoromethyl)benzyl)-1,8-diazaspiro[4.5]decane-8-carboxylate]

Structure (SMILES) | IC50 (MAGL [1]; [8]) | FAAH % Inh 5 mg/kg (mouse) (FAAH [2]) | inhibition at 1 µM (ABHD6 [3]; mouse proteome) | IC50 (ABHD6 [3]; mouse proteome) | MAGL % Inh 5 mg/kg (mouse) (MAGL [4]) | inhibition at 1 µM (FAAH [5]; mouse proteome) | IC50 (FAAH [5]; mouse proteome) | inhibition at 1 µM (MAGL [6]; mouse proteome) | IC50 (MAGL [6]; mouse proteome) | ABHD6 % Inh 5 mg/kg (mouse) (ABHD6 [7]) | IC50 (MAGL [1]; human) | inhibition at 1 µM (ABHD6 [3]; mouse) | inhibition at 1 µM (FAAH [5]; mouse) | inhibition at 1 µM (MAGL [6]; mouse)
CC1(C(=O)O)CCN(c2cc(C(F)(F)F)ccc2CN2CCCC23CCN(C(=O)OC(C(F)(F)F)C(F)(F)F)CC3)C1 (stereo not shown) [Example 230] | – | # (# is <25%) | – | – | ## (## is equal to or greater than 25% but less than 75%) | – | – | – | – | # (# is <25%) | < 0.1 µM | < 25% | < 25% | > 75%
